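Grown in 96-well plates, cells were treated for 48 hours with each compound at five concentrations. Insufficient inhibition: endpoint recorded as highest concentration tested. TGI denotes the concentration required for complete inhibition of growth.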
The compounds below were run on CAKI-1 renal (assay: growth of human tumour cells (NCI), 48 h).
For `Nn1c(Nc2ccc(S(=O)(=O)Nc3ncccn3)cc2)nnc(/C=C/c2c(O)ccc3ccccc23)c1=O`, the TGI was 89.9 µM. `Cc1cc(-c2nc3ccc(F)cc3s2)ccc1NC(=O)[C@H](C)N` showed a TGI of 22.1 µM. Work on `C=CC1(CC/C(=C\[N+](=O)[O-])c2ccc(OC)c(OC)c2)OCC(C)(C)CO1` yielded a TGI of 52.9 µM. For `Nc1c(-c2ccc(Cl)c(Cl)c2)c2ccc([N+](=O)[O-])cc2c(=O)n1-c1nc2ccccc2s1`, the TGI was over 39.7 µM. For `NS(=O)(=O)c1nnc(NC(=O)Nc2ccc(Cl)c(Cl)c2)s1`, the TGI was 78.8 µM. With `COC(=O)c1c(C)nc2c1cc(O)c1[nH]c(C)c(C)nc12` the TGI was over 100 µM. For `O=[N+]([O-])c1cc(C=NC23CC4CC(CC(C4)C2)C3)ccc1Cl`, the TGI was 18.7 µM. Work on `COc1cc(S(=O)(=O)Nc2nc(-c3ccc(N4C(=O)C(CC(=O)O)SC4c4cccs4)cc3)cs2)ccc1Cl` (stereo not given) yielded a TGI of over 100 µM. For `CCCCCC1=CC(=O)C1(Cl)Cl`, the TGI was 23.3 µM. In the case of `CC(=O)N(C(=O)CC(=O)N1N=C(c2ccccc2)C(N=Nc2ccccc2[N+](=O)[O-])C1=O)c1ccc(Cl)cc1` (stereo not given), the TGI was over 10 µM. `CC(=O)N1C(C(=O)NC2CCCCC2)CSC1c1ccccc1` (stereo not given) showed a TGI of over 100 µM. `Oc1ccccc1CNCc1nc2ccccc2[nH]1` gave a TGI of over 100 µM. `COc1ncc(/C=C2\OC(=O)c3ccccc32)c(OC)n1` gave a TGI of 36.8 µM. `CC(=O)Nn1c(=S)[nH]c2ccccc21` showed a TGI of over 100 µM. `C[C@]12CCC3C4=C(CCC3C1CCC2=O)C(=O)[C@H]1O[C@H]1C4=O` (stereo not given in full) was tested, and the TGI was 4.88 µM. For `CCCCOC(=O)Nc1ccc(S(=O)(=O)Nc2ccccc2Cl)cc1`, the TGI was 44.5 µM. Compound `Oc1[nH]c2ccccc2c1N=Nc1nc(-c2ccc(Br)cc2)cs1` has a TGI of 39.9 µM. For `CC(C)c1cc2c(cc1S(=O)(=O)O)[C@@]1(C)CCC[C@@](C)(C(=O)O)C1CC2` (stereo not given in full), the TGI was over 100 µM. With `N#CC(Cc1ccccc1)N(CCC1=CCCCC1)C(c1ccccc1)c1ccccc1` (stereo not given) the TGI was over 100 µM. `C#CCn1c(=O)c2ccccc2n(CC#C)c1=O` gave a TGI of over 10 µM. Work on `[N-]=[N+]=NC(c1ccccc1)(c1ccccc1)c1ccccc1` yielded a TGI of 46.7 µM. In the case of `CC(=O)c1c2c(c3ccccc3c1O)O[C@@H]1OCC[C@H]21`, the TGI was over 100 µM. Compound `C(=C(c1ccc(OC2CCCCO2)cc1)c1ccc(OC2CCCCO2)cc1)c1ccccc1` (stereo not given) has a TGI of 1.92 µM. `C[C@]12CC[C@H](O)CC1=CC[C@@H]1[C@@H]2CC[C@]2(C)C(=N/N)/C(=N\O)C[C@@H]12` was tested, and the TGI was over 100 µM. `O=C(c1ccccn1)C1(N2CCCCC2)CCCCC1` was tested, and the TGI was over 100 µM. For `Cc1ccc(NC(=O)c2ccc(OP(=O)(O)Nc3ccc(C)cc3)cc2)cc1`, the TGI was over 100 µM. In the case of `Cc1ccnc(NS(=O)(=O)c2ccc(N=[N+]=[N-])cc2)n1`, the TGI was over 100 µM. For `Cc1ccccc1C(=N)c1ccccc1Cc1cccc2ccccc12`, the TGI was over 100 µM. With `COc1ccc(-c2[nH]c3c4c(nc5c(c24)C(=O)CC(C)(C)C5)CC(C)(C)C3)cc1` the TGI was over 100 µM. Work on `Cc1ccccc1OC(C)C(=O)NN1C(=O)CSC1c1ccccc1` (stereo not given) yielded a TGI of over 100 µM. Work on `CC(C)=CCC[C@@H](C)c1c(O)c(O)c(C)c2nccnc12` yielded a TGI of over 90.3 µM. In the case of `S=C(N/N=C(/c1ccccc1)c1ccccn1)N(Cc1ccccn1)Cc1ccccn1`, the TGI was 1.42 µM. Work on `O=c1[nH]c(=S)[nH]c2c1C(c1ccc([N+](=O)[O-])cc1)c1c([nH]c(=S)[nH]c1=O)O2` yielded a TGI of over 100 µM. In the case of `Cn1c(=O)c2c(nc3n2CC(C(=O)O)N3)n(C)c1=O` (stereo not given), the TGI was over 100 µM. `Cc1oc2c(cc(O)c3cc(O)ccc32)c2cccc1-2` gave a TGI of over 100 µM. Work on `NC(N)=Nc1ccc(CC(N)NCC(=O)O)cc1` (stereo not given) yielded a TGI of over 25 µM. `O=C(OCc1ccccc1)N1CCNCCN(C(=O)OCc2ccccc2)CCNCC1` gave a TGI of 55.1 µM. In the case of `COP(=O)(OC)C1=c2c(C)noc2=C2C=COC2C1=O` (stereo not given), the TGI was over 100 µM. With `N#CC(NCc1cccc(CNC(C#N)c2ccccc2)c1)c1ccccc1` (stereo not given) the TGI was over 100 µM.

What follows are compounds tested on NCI-H522 lung (assay: growth of human tumour cells (NCI), 48 h).
Work on `CCOC(=O)c1c(CN2CCCC2)n(-c2ccccc2)c2cc(Br)c(O)cc12` yielded a TGI of 36.3 µM. `Nn1c(-c2ccccc2)n[nH]c1=O` gave a TGI of over 100 µM. In the case of `Nn1c(Nc2ccc(S(=O)(=O)Nc3ncccn3)cc2)nnc(/C=C/c2c(O)ccc3ccccc23)c1=O`, the TGI was 69.6 µM. `Cc1cc(-c2nc3ccc(F)cc3s2)ccc1NC(=O)[C@H](C)N` gave a TGI of 20.7 µM. For `C=CC1(CC/C(=C\[N+](=O)[O-])c2ccc(OC)c(OC)c2)OCC(C)(C)CO1`, the TGI was 37.8 µM. `Nc1c(-c2ccc(Cl)c(Cl)c2)c2ccc([N+](=O)[O-])cc2c(=O)n1-c1nc2ccccc2s1` showed a TGI of 3.02 µM. For `NS(=O)(=O)c1nnc(NC(=O)Nc2ccc(Cl)c(Cl)c2)s1`, the TGI was 30.1 µM. Work on `COC(=O)c1c(C)nc2c1cc(O)c1[nH]c(C)c(C)nc12` yielded a TGI of over 100 µM. `O=[N+]([O-])c1cc(C=NC23CC4CC(CC(C4)C2)C3)ccc1Cl` gave a TGI of 32.7 µM. Work on `COc1cc(S(=O)(=O)Nc2nc(-c3ccc(N4C(=O)C(CC(=O)O)SC4c4cccs4)cc3)cs2)ccc1Cl` (stereo not given) yielded a TGI of 37.1 µM. `CCCCCC1=CC(=O)C1(Cl)Cl` gave a TGI of 15.8 µM. Compound `CC(=O)N(C(=O)CC(=O)N1N=C(c2ccccc2)C(N=Nc2ccccc2[N+](=O)[O-])C1=O)c1ccc(Cl)cc1` (stereo not given) has a TGI of over 10 µM. Work on `CC(=O)N1C(C(=O)NC2CCCCC2)CSC1c1ccccc1` (stereo not given) yielded a TGI of over 100 µM. `Oc1ccccc1CNCc1nc2ccccc2[nH]1` gave a TGI of over 100 µM. Compound `COc1ncc(/C=C2\OC(=O)c3ccccc32)c(OC)n1` has a TGI of over 100 µM. In the case of `CC(=O)Nn1c(=S)[nH]c2ccccc21`, the TGI was over 100 µM. `C[C@]12CCC3C4=C(CCC3C1CCC2=O)C(=O)[C@H]1O[C@H]1C4=O` (stereo not given in full) gave a TGI of 3.36 µM. `CCCCOC(=O)Nc1ccc(S(=O)(=O)Nc2ccccc2Cl)cc1` showed a TGI of 49.3 µM. `Oc1[nH]c2ccccc2c1N=Nc1nc(-c2ccc(Br)cc2)cs1` was tested, and the TGI was over 100 µM. Compound `CC(C)c1cc2c(cc1S(=O)(=O)O)[C@@]1(C)CCC[C@@](C)(C(=O)O)C1CC2` (stereo not given in full) has a TGI of over 100 µM. Compound `N#CC(Cc1ccccc1)N(CCC1=CCCCC1)C(c1ccccc1)c1ccccc1` (stereo not given) has a TGI of 65.9 µM. In the case of `C/C(=C\CBr)CCC(Br)C(C)(C)Br` (stereo not given), the TGI was over 100 µM. `C#CCn1c(=O)c2ccccc2n(CC#C)c1=O` showed a TGI of over 10 µM. Work on `O=C1CCC2(c3ccc(Cl)cc3)Nc3ccncc3N12` (stereo not given) yielded a TGI of over 10 µM. Work on `[N-]=[N+]=NC(c1ccccc1)(c1ccccc1)c1ccccc1` yielded a TGI of 33.5 µM. `CC(=O)c1c2c(c3ccccc3c1O)O[C@@H]1OCC[C@H]21` showed a TGI of over 100 µM. `C(=C(c1ccc(OC2CCCCO2)cc1)c1ccc(OC2CCCCO2)cc1)c1ccccc1` (stereo not given) was tested, and the TGI was 2.4 µM. `C[C@]12CC[C@H](O)CC1=CC[C@@H]1[C@@H]2CC[C@]2(C)C(=N/N)/C(=N\O)C[C@@H]12` was tested, and the TGI was over 100 µM. `O=C(c1ccccn1)C1(N2CCCCC2)CCCCC1` gave a TGI of 37 µM. For `Cc1ccc(NC(=O)c2ccc(OP(=O)(O)Nc3ccc(C)cc3)cc2)cc1`, the TGI was over 100 µM. In the case of `Cc1ccnc(NS(=O)(=O)c2ccc(N=[N+]=[N-])cc2)n1`, the TGI was over 100 µM. `Cc1ccccc1C(=N)c1ccccc1Cc1cccc2ccccc12` was tested, and the TGI was 34.6 µM. With `COc1ccc(-c2[nH]c3c4c(nc5c(c24)C(=O)CC(C)(C)C5)CC(C)(C)C3)cc1` the TGI was over 100 µM. Compound `Cc1ccccc1OC(C)C(=O)NN1C(=O)CSC1c1ccccc1` (stereo not given) has a TGI of over 100 µM. Work on `CC(C)=CCC[C@@H](C)c1c(O)c(O)c(C)c2nccnc12` yielded a TGI of 23.6 µM. `S=C(N/N=C(/c1ccccc1)c1ccccn1)N(Cc1ccccn1)Cc1ccccn1` was tested, and the TGI was 4.5 µM. `O=c1[nH]c(=S)[nH]c2c1C(c1ccc([N+](=O)[O-])cc1)c1c([nH]c(=S)[nH]c1=O)O2` showed a TGI of over 100 µM. `Cn1c(=O)c2c(nc3n2CC(C(=O)O)N3)n(C)c1=O` (stereo not given) showed a TGI of over 100 µM. With `Cc1oc2c(cc(O)c3cc(O)ccc32)c2cccc1-2` the TGI was over 100 µM. With `NC(N)=Nc1ccc(CC(N)NCC(=O)O)cc1` (stereo not given) the TGI was over 25 µM. For `O=C(OCc1ccccc1)N1CCNCCN(C(=O)OCc2ccccc2)CCNCC1`, the TGI was 34.5 µM. `COP(=O)(OC)C1=c2c(C)noc2=C2C=COC2C1=O` (stereo not given) gave a TGI of over 100 µM. Compound `N#CC(NCc1cccc(CNC(C#N)c2ccccc2)c1)c1ccccc1` (stereo not given) has a TGI of over 100 µM.

These compounds were tested on SK-MEL-2 melanoma (assay: growth of human tumour cells (NCI), 48 h).
`CCOC(=O)c1c(CN2CCCC2)n(-c2ccccc2)c2cc(Br)c(O)cc12` gave a TGI of 33.3 µM. `Nn1c(-c2ccccc2)n[nH]c1=O` gave a TGI of over 100 µM. `Nn1c(Nc2ccc(S(=O)(=O)Nc3ncccn3)cc2)nnc(/C=C/c2c(O)ccc3ccccc23)c1=O` gave a TGI of 51.1 µM. With `Cc1cc(-c2nc3ccc(F)cc3s2)ccc1NC(=O)[C@H](C)N` the TGI was 25.2 µM. With `C=CC1(CC/C(=C\[N+](=O)[O-])c2ccc(OC)c(OC)c2)OCC(C)(C)CO1` the TGI was 37.7 µM. In the case of `Nc1c(-c2ccc(Cl)c(Cl)c2)c2ccc([N+](=O)[O-])cc2c(=O)n1-c1nc2ccccc2s1`, the TGI was 14.4 µM. `NS(=O)(=O)c1nnc(NC(=O)Nc2ccc(Cl)c(Cl)c2)s1` was tested, and the TGI was 74.2 µM. Work on `COC(=O)c1c(C)nc2c1cc(O)c1[nH]c(C)c(C)nc12` yielded a TGI of over 100 µM. `O=[N+]([O-])c1cc(C=NC23CC4CC(CC(C4)C2)C3)ccc1Cl` was tested, and the TGI was over 100 µM. In the case of `COc1cc(S(=O)(=O)Nc2nc(-c3ccc(N4C(=O)C(CC(=O)O)SC4c4cccs4)cc3)cs2)ccc1Cl` (stereo not given), the TGI was 69.7 µM. Compound `CCCCCC1=CC(=O)C1(Cl)Cl` has a TGI of 47.7 µM. Work on `CC(=O)N(C(=O)CC(=O)N1N=C(c2ccccc2)C(N=Nc2ccccc2[N+](=O)[O-])C1=O)c1ccc(Cl)cc1` (stereo not given) yielded a TGI of over 10 µM. `CC(=O)N1C(C(=O)NC2CCCCC2)CSC1c1ccccc1` (stereo not given) gave a TGI of over 100 µM. Work on `Oc1ccccc1CNCc1nc2ccccc2[nH]1` yielded a TGI of over 100 µM. With `CC(=O)Nn1c(=S)[nH]c2ccccc21` the TGI was over 100 µM. `C[C@]12CCC3C4=C(CCC3C1CCC2=O)C(=O)[C@H]1O[C@H]1C4=O` (stereo not given in full) gave a TGI of 26.5 µM. `CCCCOC(=O)Nc1ccc(S(=O)(=O)Nc2ccccc2Cl)cc1` showed a TGI of 38.8 µM. `Oc1[nH]c2ccccc2c1N=Nc1nc(-c2ccc(Br)cc2)cs1` showed a TGI of over 100 µM. `CC(C)c1cc2c(cc1S(=O)(=O)O)[C@@]1(C)CCC[C@@](C)(C(=O)O)C1CC2` (stereo not given in full) gave a TGI of over 100 µM. For `N#CC(Cc1ccccc1)N(CCC1=CCCCC1)C(c1ccccc1)c1ccccc1` (stereo not given), the TGI was over 100 µM. `C/C(=C\CBr)CCC(Br)C(C)(C)Br` (stereo not given) gave a TGI of over 100 µM. With `C#CCn1c(=O)c2ccccc2n(CC#C)c1=O` the TGI was over 10 µM. With `O=C1CCC2(c3ccc(Cl)cc3)Nc3ccncc3N12` (stereo not given) the TGI was over 10 µM.
